This is an account of results in ChEMBL document CHEMBL1201862, “PubChem BioAssay data set” (2004).

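48-hour exposure; five concentrations; linearly interpolated endpoints. Here, GI50 denotes the concentration required for 50% inhibition of growth.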 Calls of active or inactive are those of the source. No stated cut-off is given here; in the data, active = GI50 up to about 1.1 µM and inactive = higher.

What all share (assay): NCI tumour cell line growth inhibition, 48 h
Assay [1] relates to CAKI-1.
In assay [2] the test system is 786-0.
Assay [3] has as its system OVCAR-4.
Assay [4] concerns CCRF-CEM.
Assay [5] relates to DU-145.
Assay [6] concerns OVCAR-5.
In assay [7] the test system is HCT-15.
Assay [8] concerns SR.
Assay [9] relates to OVCAR-3.
Assay [10] relates to SK-MEL-2.
Assay [11] deals with EKVX.
Assay [12] concerns K562.
In assay [13] the test system is HCC 2998.
For assay [14], the system named is IGROV-1.
Assay [15] relates to NCI-H23.
Assay [16] deals with NCI-H226.
Assay [17] deals with PC-3.
Assay [18] relates to SF-539.
In assay [19] the test system is MDA-MB-231.
Assay [20] relates to RXF 393.

On to `Cc1cc2nnc(C(N)=O)c(N)c2cc1C`, for which the GI50 is > 100 µM (inactive) in assay [1]; 29.1 µM (inactive) in assay [2]; > 100 µM (inactive) in assay [3]; > 100 µM (inactive) in [4]; > 100 µM (inactive) in assay [5]; > 100 µM (inactive) in [6]. In addition, the GI50 is more than 100 µM in assay [7]; > 100 µM (inactive) in assay [8]; > 100 µM (inactive) in [9]; 64.7 µM (inactive) in assay [10]; > 100 µM (inactive) in assay [11]; > 100 µM (inactive) in [12]. The GI50 in assay [13], in assay [14], in assay [15], in [16], in assay [17] and in assay [18] was > 100 µM (inactive) in each case. Moreover, the GI50 in assay [19] is > 100 µM (inactive).

For the compound `Cc1ccc(/C=c2\cc3oc(=O)c4cccc(c4-3)c2=O)cc1`, the GI50 in assay [1] is > 100 µM (inactive); in [2], > 100 µM (inactive); in assay [3] it was > 100 µM (inactive); in assay [4], 19.6 µM (inactive); in assay [5], > 100 µM (inactive); in [6] it was > 100 µM (inactive). The GI50 in [7] was more than 100 µM; in assay [8], 34.1 µM (inactive); in assay [9], 72.1 µM (inactive); in [10], > 100 µM (inactive); in [11], > 100 µM (inactive); in assay [12], 33.3 µM (inactive). The GI50 was > 100 µM (inactive) in assay [13]; 88.3 µM (inactive) in assay [14]; > 100 µM (inactive) in assay [15]; > 100 µM (inactive) in assay [17]; > 100 µM (inactive) in [18]; > 100 µM (inactive) in assay [19].

With `COc1ccc(CC2c3cc(OC)c(OC)c(OC)c3CC[N+]2(C)C)cc1Oc1ccc(CC2c3cc4c(c(OC)c3CC[N+]2(C)C)OCO4)cc1` (stereo unspecified), the GI50 in assay [1], in [2], in [3], in [4], in assay [5] and in assay [6] was > 100 µM (inactive) each time. The GI50 in assay [7] is more than 100 µM; in assay [8], > 100 µM (inactive); in assay [10], > 100 µM (inactive); in [11], > 100 µM (inactive); in [12], > 100 µM (inactive); in [13], > 100 µM (inactive). Besides, the GI50 in [14], in assay [15], in assay [16], in assay [17] and in assay [19] was > 100 µM (inactive) throughout.

For `O=C1CSC(c2c[nH]c3ccccc23)N1c1cccc([N+](=O)[O-])c1` (stereo unspecified), the GI50 was > 100 µM (inactive) in assay [2]; > 100 µM (inactive) in assay [20]; > 100 µM (inactive) in assay [3]; > 100 µM (inactive) in assay [4]; 51.9 µM (inactive) in [5]; > 100 µM (inactive) in assay [6]. Further, the GI50 is 42.9 µM in assay [7]; > 100 µM (inactive) in assay [8]; > 100 µM (inactive) in assay [9]; > 100 µM (inactive) in assay [11]; 76.2 µM (inactive) in assay [12]; > 100 µM (inactive) in [13]. For the same compound, the GI50 in assay [14] was > 100 µM (inactive); in [15] it was > 100 µM (inactive); in assay [17] it was 36.1 µM (inactive); in [18] it was 82 µM (inactive); in [19], 56.2 µM (inactive).
